According to US20230371814A1, “WIRELESS THERANOSTIC SMART CONTACT LENS CAPABLE OF MEASURING AND ADJUSTING INTRAOCULAR PRESSURE IN GLAUCOMA PATIENTS” (POSTECH RESEARCH AND BUSINESS DEVELOPMENT FOUNDATION, priority 2022, published 2023):

Test: In vitro release of timolol from the drug reservoir of the flexible DDS
Type: physicochemical
Procedure: An electrochemical reaction of gold was examined in vitro in PBS (pH 7.4) and artificial tears having a constant voltage of 1.85 V. Timolol was released from the drug reservoir by applying a voltage of 1.85 V to an anode and a cathode of a DDS for 5 minutes. A concentration of the released timolol was quantified with a UV-vis spectrometer at an absorbance wavelength of 259 nm.

CC(C)(C)NC[C@H](O)COc1nsnc1N1CCOCC1 [timolol]
drug (timolol) released (absence of the PVA layer): less than 50% | timolol released without electrical triggering (for 90 minutes, without electrical triggering): less than 5% | drug (timolol) dissolution (presence of PVA): completely dissolved | time until almost all of the timolol was completely released (presence of PVA): ≤ 30 min | timolol released within 5 minutes (presence of PVA, within 5 minutes): less than 85% | cumulative release of timolol at each activation (three reservoirs activated at 10, 25 and 40 minutes): significantly enhanced | cumulative release of timolol before activation (three reservoirs, until 10 minutes (before first activation)): no significant release
